Data: patent US20210290597A1, “METHOD OF TREATING A CONDITION ASSOCIATED WITH NEURODEGENERATION USING INHIBITORS OF OAT3” (Neuropore Therapies, Inc., priority 2018, published 2021)

Key:
[1] = target: T1, human transporter BCRP (Homo sapiens, UniProt Q9UNQ0); test: In vitro ion transport assay 1, BCRP; format: cell-based; conditions: probe substrate 2 μM [3H]-prazosin
T1 construct: expressed in transfected cells; host or cells: MDCK-II
T1 sequence (Q9UNQ0 1-655): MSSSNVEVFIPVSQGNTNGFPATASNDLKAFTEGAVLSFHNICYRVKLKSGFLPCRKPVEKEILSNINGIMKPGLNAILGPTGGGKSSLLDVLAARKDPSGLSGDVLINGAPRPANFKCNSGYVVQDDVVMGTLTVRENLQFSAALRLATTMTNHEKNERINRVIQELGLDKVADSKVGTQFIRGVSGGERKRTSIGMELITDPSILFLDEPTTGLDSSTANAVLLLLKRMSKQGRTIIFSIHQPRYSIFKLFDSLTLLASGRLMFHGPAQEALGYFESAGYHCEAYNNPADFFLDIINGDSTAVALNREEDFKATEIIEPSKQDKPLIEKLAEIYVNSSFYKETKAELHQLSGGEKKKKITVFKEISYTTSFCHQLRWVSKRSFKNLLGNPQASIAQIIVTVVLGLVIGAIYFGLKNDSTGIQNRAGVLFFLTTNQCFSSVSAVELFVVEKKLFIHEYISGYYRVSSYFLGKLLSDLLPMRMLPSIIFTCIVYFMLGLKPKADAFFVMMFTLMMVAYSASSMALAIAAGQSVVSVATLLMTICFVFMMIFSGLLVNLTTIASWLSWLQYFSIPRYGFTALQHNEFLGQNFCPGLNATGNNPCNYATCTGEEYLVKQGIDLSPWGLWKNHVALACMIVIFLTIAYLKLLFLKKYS
Procedure: (§1) Compound 1 was studied in the concentration range of 0.1-100 μM for its potency against transport mediated by various transporter proteins. [table]

[2] = target: T2, human transporter OCT2 (Homo sapiens, UniProt O15244); test: In vitro ion transport assay 1, OCT2; format: cell-based; conditions: probe substrate 10 μM [14C]-metformin
T2 construct: expressed in transfected cells; host or cells: MDCK-II
T2 sequence (O15244 1-555): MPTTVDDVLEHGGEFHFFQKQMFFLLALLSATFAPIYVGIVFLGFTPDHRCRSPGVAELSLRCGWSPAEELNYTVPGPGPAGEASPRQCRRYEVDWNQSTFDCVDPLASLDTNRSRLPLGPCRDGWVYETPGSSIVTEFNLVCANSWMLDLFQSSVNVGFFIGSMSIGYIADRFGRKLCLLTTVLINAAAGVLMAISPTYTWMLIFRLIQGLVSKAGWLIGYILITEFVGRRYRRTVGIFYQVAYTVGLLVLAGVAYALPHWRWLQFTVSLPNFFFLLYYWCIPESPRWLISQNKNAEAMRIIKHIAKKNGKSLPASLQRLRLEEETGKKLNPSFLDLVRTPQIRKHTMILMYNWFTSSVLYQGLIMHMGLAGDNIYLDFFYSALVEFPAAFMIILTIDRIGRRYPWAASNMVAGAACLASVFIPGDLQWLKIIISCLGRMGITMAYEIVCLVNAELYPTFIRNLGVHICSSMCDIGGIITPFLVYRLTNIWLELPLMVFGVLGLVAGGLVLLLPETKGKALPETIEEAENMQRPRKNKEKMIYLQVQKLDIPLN
Procedure: as §1

[3] = target: T3, human transporter MATE1 (Homo sapiens, UniProt Q96FL8); test: In vitro ion transport assay 1, MATE1; format: cell-based; conditions: probe substrate 10 μM [14C]-metformin
T3 construct: expressed in transfected cells; host or cells: MDCK-II
T3 sequence (Q96FL8 1-570): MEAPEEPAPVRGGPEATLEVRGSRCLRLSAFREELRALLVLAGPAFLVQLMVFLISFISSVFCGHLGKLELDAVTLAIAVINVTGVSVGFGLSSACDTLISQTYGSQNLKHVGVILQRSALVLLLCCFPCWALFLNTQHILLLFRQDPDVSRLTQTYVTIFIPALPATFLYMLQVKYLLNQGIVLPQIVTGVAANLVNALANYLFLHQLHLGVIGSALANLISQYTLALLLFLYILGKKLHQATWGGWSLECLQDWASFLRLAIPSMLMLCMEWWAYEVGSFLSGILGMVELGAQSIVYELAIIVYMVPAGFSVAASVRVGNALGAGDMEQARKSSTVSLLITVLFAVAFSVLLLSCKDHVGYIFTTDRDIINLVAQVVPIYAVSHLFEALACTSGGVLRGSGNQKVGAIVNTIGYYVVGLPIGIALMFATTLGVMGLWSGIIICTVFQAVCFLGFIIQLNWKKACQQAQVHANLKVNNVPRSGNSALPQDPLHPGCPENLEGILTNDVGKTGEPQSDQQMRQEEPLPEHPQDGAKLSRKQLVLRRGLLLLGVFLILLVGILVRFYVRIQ
Procedure: as §1

[4] = tested on: PK-resistant alpha-synuclein; test: PK-resistant (insoluble) alpha-synuclein IHC, L61 ASYN transgenic mice, 1 month study; format: in vivo; conditions: for reduction of PK-resistant alpha synuclein levels in cortex compared to vehicle-treated mice: L61 ASYN transgenic mice
Procedure: Multiple in vivo administration studies of Compound 1 were carried out in the Line 61 (L61) mThy1-alpha-synuclein transgenic mouse model of Parkinson's disease (PD). The mThy1-alpha-synuclein transgenic mouse model overexpresses wild-type human ASYN under the Thy-1 promoter (commonly referred to as Line 61 transgenic mice; Rockenstein et al., 2002). This transgenic mouse develops extensive accumulation of alpha-synuclein (ASYN) in areas relevant to PD (Rockenstein et al., 2002; Chesselet et al., 2012; Games et al., 2013), neurodegeneration including dopaminergic neurodegeneration, reduced dopamine (DA) and TH loss in the striatum (Masliah et al., 2000; Lam et al., 2011), and motor deficits (Fleming et al., 2004). Male transgenic and non-transgenic littermates (3-3.5 mo) were used for all in vivo studies presented here.
Alpha-synuclein (ASYN) is a neuronal protein whose dysregulation has been implicated in the pathogenesis of PD. The effects of Compound 1 on alpha-synuclein aggregation were assessed in both L61 ASYN transgenic and non-transgenic mice in a 1 month administration study. L61 ASYN transgenic mice (36 total mice, n=8-11 mice per treatment group) were injected (i.p.) daily with 1, 5, or 10 mg/kg of Compound 1 or a vehicle control (5% DMSO+20% Cremphor EL+0.9% normal saline) for 1 month. […] At the end of one month, the mice were sacrificed, and immunohistochemical (IHC) detection of total alpha-synuclein deposits, insoluble alpha-synuclein deposits (PK+resistant), microtubule-associated protein 1A/1B-light chain 3 (LC3), and monomeric alpha-synuclein levels were assessed in the harvested brain tissues.
The quantification and IHC staining of PK-resistant alpha-synuclein were performed using known techniques (Rockenstein et al., J Neurosci Res. 2002, 68(5):568-78; Tanji et al., Acta Neuropathol. 2010, 120, 145-154; Nuber et al., Brain. 2013 February; 136(Pt 2):412-32).

O=S(=O)(c1ccc(-n2cn[nH]c2=S)cc1)c1ccc(Cl)c(C(F)(F)F)c1 [Compound 1, 4-(4-((4-chloro-3-(trifluoromethyl)phenyl)sulfonyl)phenyl)-2,4-dihydro-3H-1,2,4-triazole-3-thione]
IC50 [1]: 51.5 µM | IC50 [2]: > 100 µM | IC50 [3]: 30.3 µM | reduction of PK-resistant alpha synuclein levels in cortex compared to vehicle-treated mice ([4]; 5 mg/kg daily i.p.): 37% | reduction of PK-resistant alpha synuclein levels in cortex compared to vehicle-treated mice ([4]; 10 mg/kg daily i.p.): 36% | insoluble alpha-synuclein deposits (PK+resistant) in cortex, hippocampus and striatum ([4]; 1, 5 or 10 mg/kg per day i.p., statistically significant): reduced the insoluble alpha-synuclein deposits
